According to patent US20240116921A1, “LACTAM (HETERO)[…] DERIVATIVES AS INHIBITORS OF ERBB2” (EnLiven Therapeutics, Inc., priority 2020, published 2024):

Key:
[1] = target: Ba/F3 ERBB2 A775_G776insYVMA (Homo sapiens, UniProt P04626, DUP772-775, cells depend on it); assay: Cell viability assay, Ba/F3 ERBB2 A775_G776insYVMA; format: cell-based, mouse; settings: Ba/F3 ERBB2 YVMA cells, cell viability, 72 hours, CellTiter Glo; Table B5; read-out: Ba/F3 ERBB2 YVMA, IC50
Method in brief: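 IL-3-independent Ba/F3 lines stably expressing the human ERBB2 insertion mutants were seeded at 3000 cells/well and exposed to compounds for 72 h at 37 °C, 5% CO2. Viability was read as ATP by CellTiter-Glo luminescence. Curves were fitted by sigmoidal nonlinear regression.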

[2] = target: T1, phosphorylated ERBB2 (pERBB2) (Homo sapiens, UniProt P04626); assay: Detection of phosphorylated ERBB2 (pERBB2) by ELISA in BT-474 cells; format: cell-based; settings: four hours incubation
T1 construct: endogenous in cells; host or cells: BT-474
T1 sequence (P04626 23-1255): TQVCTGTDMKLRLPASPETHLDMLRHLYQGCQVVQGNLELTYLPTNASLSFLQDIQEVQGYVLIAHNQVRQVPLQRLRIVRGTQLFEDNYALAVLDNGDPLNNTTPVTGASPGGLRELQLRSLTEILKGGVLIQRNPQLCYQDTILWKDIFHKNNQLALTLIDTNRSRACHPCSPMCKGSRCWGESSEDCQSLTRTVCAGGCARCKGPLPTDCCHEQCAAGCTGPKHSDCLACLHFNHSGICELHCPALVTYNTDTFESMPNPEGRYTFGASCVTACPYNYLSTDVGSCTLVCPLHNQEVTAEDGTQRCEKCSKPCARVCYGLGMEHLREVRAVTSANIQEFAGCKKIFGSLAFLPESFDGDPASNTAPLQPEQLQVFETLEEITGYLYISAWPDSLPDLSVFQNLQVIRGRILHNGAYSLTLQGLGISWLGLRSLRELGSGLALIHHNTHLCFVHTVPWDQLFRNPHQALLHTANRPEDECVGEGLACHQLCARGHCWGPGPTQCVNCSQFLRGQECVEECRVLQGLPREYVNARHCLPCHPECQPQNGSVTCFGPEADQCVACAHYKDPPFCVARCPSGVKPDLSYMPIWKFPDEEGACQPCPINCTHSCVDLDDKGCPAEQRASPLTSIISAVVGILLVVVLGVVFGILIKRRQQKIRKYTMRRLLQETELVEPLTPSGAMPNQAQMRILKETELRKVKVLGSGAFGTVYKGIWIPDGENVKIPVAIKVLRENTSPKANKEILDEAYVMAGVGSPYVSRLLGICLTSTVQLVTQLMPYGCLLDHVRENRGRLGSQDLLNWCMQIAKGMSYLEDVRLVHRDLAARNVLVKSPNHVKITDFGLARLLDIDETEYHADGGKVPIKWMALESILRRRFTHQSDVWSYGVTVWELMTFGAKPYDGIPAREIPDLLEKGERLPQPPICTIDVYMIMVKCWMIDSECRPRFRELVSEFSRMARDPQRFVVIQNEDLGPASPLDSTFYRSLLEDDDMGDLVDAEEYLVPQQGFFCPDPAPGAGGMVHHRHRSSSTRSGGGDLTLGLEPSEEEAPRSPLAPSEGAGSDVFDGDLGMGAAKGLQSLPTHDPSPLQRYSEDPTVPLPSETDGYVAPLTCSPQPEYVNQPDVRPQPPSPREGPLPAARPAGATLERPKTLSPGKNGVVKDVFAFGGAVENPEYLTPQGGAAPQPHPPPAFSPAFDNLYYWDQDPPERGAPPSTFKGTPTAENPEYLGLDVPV
Method in brief: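 BT-474 cells (2.0×10^4/well) treated 4 h at 37 °C, 5% CO2 with compounds in four-fold dilutions from 10 µM to 0.01 nM. Lysate pERBB2 measured by ELISA with TMB read at 450 nm; % relative activity scaled between no-cell wells and 0.1% DMSO-treated cells.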

[3] = target: T2, phosphorylated EGFR (pEGFR) (Homo sapiens, UniProt P00533); assay: Detection of phosphorylated EGFR (pEGFR) in EGF-stimulated A431 cells; format: cell-based; settings: A431 cells (10% FBS), 4 hours incubation, EGF 30 ng/mL 10 minutes, AlphaLISA
T2 construct: performed to measure phosphorylated EGFR levels using A431 cells (10% FBS); endogenous in cells; host or cells: A431
T2 sequence (P00533 25-1210): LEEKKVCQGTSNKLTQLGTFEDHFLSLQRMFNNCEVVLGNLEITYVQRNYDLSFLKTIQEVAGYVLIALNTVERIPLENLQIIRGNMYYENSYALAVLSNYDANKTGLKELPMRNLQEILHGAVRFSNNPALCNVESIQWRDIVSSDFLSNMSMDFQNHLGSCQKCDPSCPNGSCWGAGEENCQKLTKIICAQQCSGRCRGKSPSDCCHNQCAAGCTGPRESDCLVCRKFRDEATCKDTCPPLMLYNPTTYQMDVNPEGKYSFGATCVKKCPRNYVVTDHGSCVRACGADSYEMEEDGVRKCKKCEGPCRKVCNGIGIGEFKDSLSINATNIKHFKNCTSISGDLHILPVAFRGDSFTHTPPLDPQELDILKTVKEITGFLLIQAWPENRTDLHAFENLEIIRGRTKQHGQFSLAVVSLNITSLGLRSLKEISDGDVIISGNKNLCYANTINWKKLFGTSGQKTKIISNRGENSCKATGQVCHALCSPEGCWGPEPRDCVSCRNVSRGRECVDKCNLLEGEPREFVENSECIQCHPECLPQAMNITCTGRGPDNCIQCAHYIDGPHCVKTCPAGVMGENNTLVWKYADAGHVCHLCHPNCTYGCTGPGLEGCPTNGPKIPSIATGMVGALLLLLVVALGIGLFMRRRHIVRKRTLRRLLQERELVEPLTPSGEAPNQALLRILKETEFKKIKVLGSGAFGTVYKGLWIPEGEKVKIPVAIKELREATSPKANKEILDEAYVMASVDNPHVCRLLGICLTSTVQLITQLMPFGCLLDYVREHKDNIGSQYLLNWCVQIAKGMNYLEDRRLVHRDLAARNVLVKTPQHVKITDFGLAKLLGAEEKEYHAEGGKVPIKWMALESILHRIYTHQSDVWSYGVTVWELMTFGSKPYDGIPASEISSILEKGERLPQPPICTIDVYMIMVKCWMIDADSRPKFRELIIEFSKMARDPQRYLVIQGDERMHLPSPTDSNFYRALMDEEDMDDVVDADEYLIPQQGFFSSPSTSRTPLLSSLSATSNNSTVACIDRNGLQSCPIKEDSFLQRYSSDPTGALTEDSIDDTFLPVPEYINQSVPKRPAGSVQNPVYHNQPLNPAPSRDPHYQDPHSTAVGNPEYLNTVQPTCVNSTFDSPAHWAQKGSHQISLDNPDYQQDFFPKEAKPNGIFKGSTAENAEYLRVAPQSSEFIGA
Method in brief: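 A431 cells in 10% FBS were preincubated with compound for 4 h at 37 °C, then stimulated with EGF (30 ng/mL final) for 10 min. pEGFR in lysates was read by AlphaLISA. % inhibition was calculated against DMSO and staurosporine-treated controls, and IC50 came from a four-parameter curve fit.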

Chain of Ba/F3 ERBB2 A775_G776insYVMA (P04626 with tags, fused parts or gaps DUP772-775): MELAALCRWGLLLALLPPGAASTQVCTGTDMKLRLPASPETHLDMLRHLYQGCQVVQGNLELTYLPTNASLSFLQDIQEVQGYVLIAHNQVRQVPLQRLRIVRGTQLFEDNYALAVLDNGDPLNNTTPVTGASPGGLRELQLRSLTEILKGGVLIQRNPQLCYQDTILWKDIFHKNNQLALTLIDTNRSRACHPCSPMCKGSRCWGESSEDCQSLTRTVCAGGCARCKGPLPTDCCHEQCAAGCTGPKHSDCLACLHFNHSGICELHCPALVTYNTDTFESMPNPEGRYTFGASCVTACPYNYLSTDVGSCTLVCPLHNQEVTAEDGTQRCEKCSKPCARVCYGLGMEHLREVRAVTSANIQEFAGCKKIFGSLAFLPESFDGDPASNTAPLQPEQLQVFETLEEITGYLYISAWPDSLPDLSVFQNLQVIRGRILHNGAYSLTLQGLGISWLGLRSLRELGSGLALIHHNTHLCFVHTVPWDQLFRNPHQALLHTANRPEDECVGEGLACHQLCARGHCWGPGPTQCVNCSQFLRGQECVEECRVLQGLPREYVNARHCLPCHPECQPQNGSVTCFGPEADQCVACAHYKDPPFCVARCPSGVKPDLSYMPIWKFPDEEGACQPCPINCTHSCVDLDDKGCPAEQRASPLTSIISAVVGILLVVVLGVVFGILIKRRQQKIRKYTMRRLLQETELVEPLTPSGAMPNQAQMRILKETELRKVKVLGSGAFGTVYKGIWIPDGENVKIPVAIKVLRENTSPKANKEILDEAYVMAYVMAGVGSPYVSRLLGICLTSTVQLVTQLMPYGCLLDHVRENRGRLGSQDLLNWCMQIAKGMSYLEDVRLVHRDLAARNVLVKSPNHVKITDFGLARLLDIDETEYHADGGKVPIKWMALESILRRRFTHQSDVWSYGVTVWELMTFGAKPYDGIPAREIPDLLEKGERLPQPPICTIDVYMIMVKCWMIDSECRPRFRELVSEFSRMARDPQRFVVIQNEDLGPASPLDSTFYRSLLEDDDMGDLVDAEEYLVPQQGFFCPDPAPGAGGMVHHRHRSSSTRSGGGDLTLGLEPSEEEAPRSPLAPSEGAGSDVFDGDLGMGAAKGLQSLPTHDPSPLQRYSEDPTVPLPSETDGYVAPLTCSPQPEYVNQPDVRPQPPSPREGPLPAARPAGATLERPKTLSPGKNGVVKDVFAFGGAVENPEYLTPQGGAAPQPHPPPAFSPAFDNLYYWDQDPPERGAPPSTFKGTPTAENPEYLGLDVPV

Row | SMILES | GI50 [1] [nM] | IC50 [2] [nM] | IC50 [3] [nM]
1 | CN(C)C/C=C1\CCN(c2ccc3ncnc(Nc4ccc(Oc5ccc6c(c5)ncn6C)cc4)c3n2)C1=O [Compound 92, (3E)-3-[2-(dimethylamino)ethylidene]-1-[4-({4-[(1-methyl-1,3-benzodiazol-5-yl)oxy]phenyl}amino)pyrido[3,2-d]pyrimidin-6-yl]pyrrolidin-2-one] | 3.12 | 21.3 | > 10000
2 | C=C1CCCN(c2ccc3ncnc(Nc4ccc(Oc5ccn6ncnc6c5)c(C)c4)c3n2)C1=O [Compound 95, 1-(4-((4-([1,2,4]triazolo[1,5-a]pyridin-7-yloxy)-3-methylphenyl)amino)pyrido[3,2-d]pyrimidin-6-yl)-3-methylenepiperidin-2-one] | 5.2 | 12.2 | 476
3 | C=C1CCCN(c2ccc3ncnc(Nc4ccc(Oc5ccc6c(c5)ncn6C)c(C)c4)c3n2)C1=O [Compound 96, 1-[4-({3-methyl-4-[(1-methyl-1,3-benzodiazol-5-yl)oxy]phenyl}amino)pyrido[3,2-d]pyrimidin-6-yl]-3-methylidenepiperidin-2-one] | 18.6 | 22.8 | 794
4 | CN(C)C/C=C1\CCN(c2ccc3ncnc(Nc4ccc(Oc5ccc6c(c5)ncn6C)c(Cl)c4)c3n2)C1=O [Compound 98, (E)-1-(4-((3-chloro-4-((1-methyl-1H-benzo[d]imidazol-5-yl)oxy)phenyl)amino)pyrido[3,2-d]pyrimidin-6-yl)-3-(2-(dimethylamino)ethylidene)pyrrolidin-2-one] | 1.81 | 40.3 | 942
5 | CN(C)C/C=C1\CCN(c2ccc3ncnc(Nc4ccc(Oc5ccc6c(c5)ncn6C)cc4F)c3n2)C1=O [Compound 99, (3E)-3-[2-(dimethylamino)ethylidene]-1-[4-({2-fluoro-4-[(1-methyl-1,3-benzodiazol-5-yl)oxy]phenyl}amino)pyrido[3,2-d]pyrimidin-6-yl]pyrrolidin-2-one] | 6.64 | 38.8 | > 10000
6 | CNC/C=C1\CCN(c2ccc3ncnc(Nc4ccc(Oc5ccc6c(c5)ncn6C)c(C)c4)c3n2)C1=O [Compound 100, (3E)-1-[4-({3-methyl-4-[(1-methyl-1,3-benzodiazol-5-yl)oxy]phenyl}amino)pyrido[3,2-d]pyrimidin-6-yl]-3-[2-(methylamino)ethylidene]pyrrolidin-2-one; formic acid] | 3.19 | 57.7 | 157
7 | Cc1cc(Nc2ncnc3cnc(N4CC/C(=C\CN(C)C)C4=O)cc23)ccc1Oc1ccc2c(c1)nnn2C [Compound 101, (E)-3-(2-(dimethylamino)ethylidene)-1-(4-((3-methyl-4-((1-methyl-1H-benzo[d][1,2,3]triazol-5-yl)oxy)phenyl)amino)pyrido[3,4-d]pyrimidin-6-yl)pyrrolidin-2-one] | 4.32 | 22.3 | 1160
8 | Cc1cc(Nc2ncnc3cnc(N4CC/C(=C\CN5CCC5)C4=O)cc23)ccc1Oc1ccn2ncnc2c1 [Compound 102, (E)-1-(4-((4-([1,2,4]triazolo[1,5-a]pyridin-7-yloxy)-3-methylphenyl)amino)pyrido[3,4-d]pyrimidin-6-yl)-3-(2-(azetidin-1-yl)ethylidene)pyrrolidin-2-one] | 7.51 | 8.26 | 3010
9 | [2H]C([2H])([2H])N(C/C=C1\CCN(c2ccc3ncnc(Nc4ccc(Oc5ccc6c(c5)ncn6C)c(C)c4)c3n2)C1=O)C([2H])([2H])[2H] [Compound 105, (E)-3-(2-(bis(methyl-d3)amino)ethylidene)-1-(4-((3-methyl-4-((1-methyl-1H-benzo[d]imidazol-5-yl)oxy)phenyl)amino)pyrido[3,2-d]pyrimidin-6-yl)pyrrolidin-2-one] | 2.17 | 43.7 | 503
10 | [2H]C([2H])([2H])N(C/C=C1\CCN(c2ccc3ncnc(Nc4ccc(Oc5ccc6c(c5)ncn6C([2H])([2H])[2H])c(C)c4)c3n2)C1=O)C([2H])([2H])[2H] [Compound 106, (E)-3-(2-(bis(methyl-d3)amino)ethylidene)-1-(4-((3-methyl-4-((1-(methyl-d3)-1H-benzo[d]imidazol-5-yl)oxy)phenyl)amino)pyrido[3,2-d]pyrimidin-6-yl)pyrrolidin-2-one] | 2.99 | 28.2 | 1690
11 | Cc1cc(Nc2ncnc3cnc(N4CC/C(=C\CN(C)C)C4=O)cc23)ccc1Oc1ccn2nnnc2c1 [Compound 107, (3E)-3-[2-(dimethylamino)ethylidene]-1-{4-[(3-methyl-4-{[1,2,3,4]tetrazolo[1,5-a]pyridin-7-yloxy}phenyl)amino]pyrido[3,4-d]pyrimidin-6-yl}pyrrolidin-2-one] | 81.3 | 21.6 | > 10000
12 | Cc1cc(Nc2ncnc3ccc(N4CC/C(=C\CN(C)C)C4=O)nc23)ccc1Oc1ccn2nnnc2c1 [Compound 108, (3E)-3-[2-(dimethylamino)ethylidene]-1-{4-[(3-methyl-4-{[1,2,3,4]tetrazolo[1,5-a]pyridin-7-yloxy}phenyl)amino]pyrido[3,2-d]pyrimidin-6-yl}pyrrolidin-2-one] | 11.1 | 13.2 | 3410
13 | Cc1cc(Nc2ncnc3ccc(N4CC/C(=C\[C@H](C)N(C)C)C4=O)nc23)ccc1Oc1ccn2ncnc2c1 [Compound 113, (S,E)-1-(4-((4-([1,2,4]triazolo[1,5-a]pyridin-7-yloxy)-3-methylphenyl)amino)pyrido[3,2-d]pyrimidin-6-yl)-3-(2-(dimethylamino)propylidene)pyrrolidin-2-one] | > 500 | 327 | > 10000
14 | Cc1cc(Nc2ncnc3ccc(N4CC/C(=C\[C@@H](C)N(C)C)C4=O)nc23)ccc1Oc1ccn2ncnc2c1 [Compound 114, (R,E)-1-(4-((4-([1,2,4]triazolo[1,5-a]pyridin-7-yloxy)-3-methylphenyl)amino)pyrido[3,2-d]pyrimidin-6-yl)-3-(2-(dimethylamino)propylidene)pyrrolidin-2-one] | 24.3 | 31.1 | > 10000
15 | [2H]C([2H])([2H])n1nnc2cc(Oc3ccc(Nc4ncnc5ccc(N6CC/C(=C\CN(C)C)C6=O)nc45)cc3C)ccc21 [Compound 117, (E)-3-(2-(dimethylamino)ethylidene)-1-(4-((3-methyl-4-((1-(methyl-d3)-1H-benzo[d][1,2,3]triazol-5-yl)oxy)phenyl)amino)pyrido[3,2-d]pyrimidin-6-yl)pyrrolidin-2-one] | 2 | 19.2 | > 10000
16 | Cc1cc(Nc2ncnc3ccc(N4CC/C(=C\CN(C)C)C4=O)nc23)ccc1Oc1ccc2[nH]cnc2c1 [Compound 118, (3E)-1-(4-{[4-(1H-1,3-benzodiazol-5-yloxy)-3-methylphenyl]amino}pyrido[3,2-d]pyrimidin-6-yl)-3-[2-(dimethylamino)ethylidene]pyrrolidin-2-one] | 1.55 | 10.3 | 177
17 | [2H]C([2H])([2H])n1cnc2cc(Oc3ccc(Nc4ncnc5ccc(N6CC/C(=C\CN(C)C)C6=O)nc45)cc3C)ccc21 [Compound 119, (E)-3-(2-(dimethylamino)ethylidene)-1-(4-((3-methyl-4-((1-(methyl-d3)-1H-benzo[d]imidazol-5-yl)oxy)phenyl)amino)pyrido[3,2-d]pyrimidin-6-yl)pyrrolidin-2-one] | 1.18 | 15.4 | 521
18 | Cc1cc(Nc2c(C#N)cnc3ccc(N4CC/C(=C\CN(C)C)C4=O)nc23)ccc1Oc1ccc2c(c1)ncn2C [Compound 124, 6-[(3E)-3-[2-(dimethylamino)ethylidene]-2-oxopyrrolidin-1-yl]-4-({3-methyl-4-[(1-methyl-1,3-benzodiazol-5-yl)oxy]phenyl}amino)-1,5-naphthyridine-3-carbonitrile] | 34.2 | 163 | > 10000
19 | CN(C)C/C=C1\CCN(c2cc3c(Nc4ccc(Oc5cccnc5)c(F)c4)ncnc3cn2)C1=O [Compound 125, (3E)-3-[2-(dimethylamino)ethylidene]-1-(4-{[3-fluoro-4-(pyridin-3-yloxy)phenyl]amino}pyrido[3,4-d]pyrimidin-6-yl)pyrrolidin-2-one] | 56 | 42.8 | 1140
20 | CN(C)C/C=C1\CCN(c2ccc3ncnc(Nc4ccc(Oc5cccnc5)c(F)c4)c3n2)C1=O [Compound 126, (3E)-3-[2-(dimethylamino)ethylidene]-1-(4-{[3-fluoro-4-(pyridin-3-yloxy)phenyl]amino}pyrido[3,2-d]pyrimidin-6-yl)pyrrolidin-2-one] | 34 | 99.1 | 1110
21 | C=C1CCCN(c2cc3c(Nc4ccc(Oc5ccc6c(c5)ncn6C)c(C)c4)ncnc3cn2)C1=O [Compound 127, 1-[4-({3-methyl-4-[(1-methyl-1,3-benzodiazol-5-yl)oxy]phenyl}amino)pyrido[3,4-d]pyrimidin-6-yl]-3-methylidenepiperidin-2-one] | 24.3 | 27 | 1200
